Common to all, as to test: Kinase inhibitory activity (33P-ATP, filtration-binding method, Reaction Biology Corp.)
Type in all cases: biochemical

The target of one assay is T1, Ros1 (Homo sapiens, UniProt P08922).
T1 construct: purchased Reaction Biology Corp
In a few lines:
(§1)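 Radiometric kinase assay: enzyme-compound mixture preincubated 20 minutes at room temperature, then reaction started with ^33P-ATP and run 120 minutes at room temperature. Filtration-binding readout. Activity expressed relative to DMSO control; IC50 from fitted dose-response curves.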

A further assay concerns the target T2, TrkA (Homo sapiens, UniProt P04629).
T2 construct: purchased Reaction Biology Corp
In a few lines:
as §1

In another assay the target is T3, TrkA-G595R (Homo sapiens, UniProt P04629, G595R).
T3 construct: purchased Reaction Biology Corp
In a few lines: as §1

Another assay concerns the target T4, TrkA-G667C (Homo sapiens, UniProt P04629, G667C).
T4 construct: purchased Reaction Biology Corp
The essentials: as §1

The target in a further assay is T5, TrkC (Homo sapiens, UniProt Q16288).
T5 construct: purchased Reaction Biology Corp
The essentials:
as §1

A word on the IC50: it is the concentration that gives 50% inhibition. Lower therefore signals inhibition by little substance.

The structures appear in SMILES notation.

T2 sequence (P04629 33-796): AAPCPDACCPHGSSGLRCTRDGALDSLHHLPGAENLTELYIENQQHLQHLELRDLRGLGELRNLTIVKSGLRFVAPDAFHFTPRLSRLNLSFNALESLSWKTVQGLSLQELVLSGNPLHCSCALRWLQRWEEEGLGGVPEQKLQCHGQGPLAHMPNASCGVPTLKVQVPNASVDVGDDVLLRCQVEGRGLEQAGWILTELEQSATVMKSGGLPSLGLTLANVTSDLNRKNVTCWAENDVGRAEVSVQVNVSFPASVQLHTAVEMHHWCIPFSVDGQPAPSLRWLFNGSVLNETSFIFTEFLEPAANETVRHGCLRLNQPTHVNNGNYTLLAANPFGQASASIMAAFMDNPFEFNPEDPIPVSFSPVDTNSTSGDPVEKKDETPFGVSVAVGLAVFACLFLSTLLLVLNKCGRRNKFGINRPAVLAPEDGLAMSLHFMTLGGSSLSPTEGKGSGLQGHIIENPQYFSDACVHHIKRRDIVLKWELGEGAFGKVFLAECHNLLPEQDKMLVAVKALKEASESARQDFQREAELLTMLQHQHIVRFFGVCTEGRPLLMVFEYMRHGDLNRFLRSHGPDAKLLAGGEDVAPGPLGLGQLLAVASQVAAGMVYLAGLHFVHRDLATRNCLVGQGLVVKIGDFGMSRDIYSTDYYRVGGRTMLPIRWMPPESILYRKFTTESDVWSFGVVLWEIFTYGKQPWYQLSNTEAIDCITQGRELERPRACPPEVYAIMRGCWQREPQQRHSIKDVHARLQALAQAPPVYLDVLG
T5 sequence (Q16288 32-839): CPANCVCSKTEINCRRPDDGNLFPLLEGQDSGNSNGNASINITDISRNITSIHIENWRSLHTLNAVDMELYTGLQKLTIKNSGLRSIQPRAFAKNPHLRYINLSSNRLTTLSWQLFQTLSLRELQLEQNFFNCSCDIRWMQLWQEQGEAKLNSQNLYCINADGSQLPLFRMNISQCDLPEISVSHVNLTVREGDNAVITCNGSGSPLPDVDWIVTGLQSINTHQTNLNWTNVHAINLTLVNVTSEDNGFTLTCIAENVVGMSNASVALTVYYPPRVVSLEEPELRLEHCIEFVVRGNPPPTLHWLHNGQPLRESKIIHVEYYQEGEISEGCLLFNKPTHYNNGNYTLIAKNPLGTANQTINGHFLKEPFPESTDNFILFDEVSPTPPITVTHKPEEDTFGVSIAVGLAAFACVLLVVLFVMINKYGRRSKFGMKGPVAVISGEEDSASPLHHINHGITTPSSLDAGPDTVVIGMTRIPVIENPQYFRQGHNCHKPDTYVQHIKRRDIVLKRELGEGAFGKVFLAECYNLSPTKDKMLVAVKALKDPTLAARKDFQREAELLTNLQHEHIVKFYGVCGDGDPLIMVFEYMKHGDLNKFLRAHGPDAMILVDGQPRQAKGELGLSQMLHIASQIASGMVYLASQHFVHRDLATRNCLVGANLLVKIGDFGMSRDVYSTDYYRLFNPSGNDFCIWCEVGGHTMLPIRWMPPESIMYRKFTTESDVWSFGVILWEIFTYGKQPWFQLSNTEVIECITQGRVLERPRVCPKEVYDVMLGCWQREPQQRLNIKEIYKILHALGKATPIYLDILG
T4 sequence (P04629 33-796 G667C): as the sequence (P04629 33-796) above, with G635C counted along it
T1 sequence (P08922 28-2347): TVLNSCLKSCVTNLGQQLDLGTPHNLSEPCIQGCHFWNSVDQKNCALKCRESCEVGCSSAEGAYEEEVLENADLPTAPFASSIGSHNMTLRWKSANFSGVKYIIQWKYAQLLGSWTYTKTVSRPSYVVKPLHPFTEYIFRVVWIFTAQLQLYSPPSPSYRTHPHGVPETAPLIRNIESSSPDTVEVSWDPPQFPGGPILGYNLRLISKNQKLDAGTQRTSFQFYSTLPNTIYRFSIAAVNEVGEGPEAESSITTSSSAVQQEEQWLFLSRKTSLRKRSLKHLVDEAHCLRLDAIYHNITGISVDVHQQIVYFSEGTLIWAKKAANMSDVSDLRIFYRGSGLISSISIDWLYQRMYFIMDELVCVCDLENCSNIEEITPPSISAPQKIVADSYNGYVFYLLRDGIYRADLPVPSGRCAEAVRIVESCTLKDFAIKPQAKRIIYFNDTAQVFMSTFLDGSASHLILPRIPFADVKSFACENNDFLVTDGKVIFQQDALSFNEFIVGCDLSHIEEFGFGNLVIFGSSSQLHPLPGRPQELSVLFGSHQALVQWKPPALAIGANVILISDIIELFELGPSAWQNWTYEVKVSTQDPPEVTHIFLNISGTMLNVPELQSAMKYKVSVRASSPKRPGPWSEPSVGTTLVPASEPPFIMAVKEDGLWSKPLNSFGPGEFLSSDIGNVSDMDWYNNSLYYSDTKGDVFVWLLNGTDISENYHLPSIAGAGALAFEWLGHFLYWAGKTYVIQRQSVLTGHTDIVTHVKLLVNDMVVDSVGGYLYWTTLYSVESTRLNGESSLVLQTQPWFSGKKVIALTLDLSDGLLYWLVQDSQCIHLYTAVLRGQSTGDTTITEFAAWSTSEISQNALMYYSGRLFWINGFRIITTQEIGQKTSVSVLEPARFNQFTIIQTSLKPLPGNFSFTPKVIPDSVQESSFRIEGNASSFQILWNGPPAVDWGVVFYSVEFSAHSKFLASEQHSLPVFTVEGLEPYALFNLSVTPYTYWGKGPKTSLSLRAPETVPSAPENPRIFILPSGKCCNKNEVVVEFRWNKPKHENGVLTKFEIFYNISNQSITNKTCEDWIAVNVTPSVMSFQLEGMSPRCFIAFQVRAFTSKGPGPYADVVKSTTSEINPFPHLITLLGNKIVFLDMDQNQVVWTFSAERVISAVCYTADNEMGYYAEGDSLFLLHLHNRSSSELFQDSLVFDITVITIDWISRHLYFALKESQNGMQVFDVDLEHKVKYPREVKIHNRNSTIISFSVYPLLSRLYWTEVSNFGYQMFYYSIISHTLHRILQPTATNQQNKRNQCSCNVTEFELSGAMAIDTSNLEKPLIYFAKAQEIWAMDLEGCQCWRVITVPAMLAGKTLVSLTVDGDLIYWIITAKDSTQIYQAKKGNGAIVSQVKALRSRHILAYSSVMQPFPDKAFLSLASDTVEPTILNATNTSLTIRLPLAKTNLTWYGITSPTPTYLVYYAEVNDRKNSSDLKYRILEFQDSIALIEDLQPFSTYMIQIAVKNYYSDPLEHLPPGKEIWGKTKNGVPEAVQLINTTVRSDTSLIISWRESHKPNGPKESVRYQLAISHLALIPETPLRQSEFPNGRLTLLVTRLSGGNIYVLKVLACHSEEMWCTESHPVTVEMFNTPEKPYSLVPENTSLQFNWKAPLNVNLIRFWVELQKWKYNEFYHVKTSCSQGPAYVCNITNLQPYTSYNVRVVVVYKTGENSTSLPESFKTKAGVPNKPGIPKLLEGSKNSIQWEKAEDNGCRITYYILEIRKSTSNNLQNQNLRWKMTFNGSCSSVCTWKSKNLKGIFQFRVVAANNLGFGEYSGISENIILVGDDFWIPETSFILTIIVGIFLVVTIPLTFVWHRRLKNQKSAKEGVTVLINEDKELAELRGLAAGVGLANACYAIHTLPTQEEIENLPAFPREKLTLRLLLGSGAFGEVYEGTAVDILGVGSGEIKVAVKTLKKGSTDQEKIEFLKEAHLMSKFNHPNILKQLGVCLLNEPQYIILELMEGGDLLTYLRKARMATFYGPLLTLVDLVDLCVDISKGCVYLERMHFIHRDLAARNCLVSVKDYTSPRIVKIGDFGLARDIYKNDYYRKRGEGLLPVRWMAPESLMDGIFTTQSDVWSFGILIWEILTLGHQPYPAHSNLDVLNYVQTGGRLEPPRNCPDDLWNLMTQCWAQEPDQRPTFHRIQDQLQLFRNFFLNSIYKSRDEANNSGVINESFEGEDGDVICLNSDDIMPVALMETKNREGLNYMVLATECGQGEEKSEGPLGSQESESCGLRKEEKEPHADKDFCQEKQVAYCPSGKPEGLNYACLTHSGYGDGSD
T3 sequence (P04629 33-796 G595R): as the sequence (P04629 33-796) above, with G563R counted along it

For `O=C1NC2(CC2)COc2ncc(F)cc2C2COCCN2c2ccn3ncc1c3n2` (single isomer, unassigned) [WX001B], the IC50 came to 1 nM at Ros1; 2.4 nM on TrkA; 3.5 nM on TrkA-G595R; 2.3 nM on TrkA-G667C; 0.2 nM at TrkC.

The values are drawn from patent US20210403485A1, “PYRAZOLOPYRIMIDINE DERIVATIVE AS SELECTIVE TRK INHIBITOR” (SHANDONG LUYE PHARMACEUTICAL CO., LTD., priority 2018, published 2021).
